Test results published in patent publication US8247211B2, “Glycopeptide antibiotics” (American Cyanamid Company, priority 2001, dated 2012).
In brackets after ≈: the same amount, converted by molar mass.

How the values were obtained:
Experiment in all cases: In vitro antibacterial evaluation: minimum inhibitory concentration (MIC), broth dilution method
Format in all cases: cell-based
Enterococcus sp. = conditions: 18 hours at 35° C.
In short: (§1)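 NCCLS M7-A2 broth dilution with Mueller-Hinton II, testing 64-0.06 μg/mL antibiotic against 5×10^5 CFU/mL inocula. Test strains include recent methicillin-, penicillin- or vancomycin-resistant clinical isolates. MIC is the lowest concentration preventing growth.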

Escherichia coli = conditions: 18 hours at 35° C.
In short: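 Inoculum: 5×10^5 CFU/mL. Range: 64-0.06 μg/mL. Medium: Muller-Hinton II […]; NCCLS M7-A2 broth dilution. Endpoint: lowest concentration inhibiting growth. Strains include methicillin-, penicillin- and/or vancomycin-resistant clinical isolates.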

Staphylococcus sp. = test system: Staphylococcus sp.
In short: as §1

Streptococcus sp. = conditions: 18 hours at 35° C.
In short: as §1

[1] = broth dilution, inoculum 5×10^5 CFU/mL

CC(c1ccccc1)C1NC(=O)CNC(=O)C(CO)NC(=O)C(C(O)C2CNC(=N)N2C2OC(CO)C(O)C(O)C2O)NC(=O)C(C(O)C2CNC(=N)N2)NC(=O)C(Cc2ccc(OC3OC(CO)C(OC4OC(CO)C(O)C5OC6(CCCCCCCCCCCC6)OC45)C(O)C3O)cc2)NC1=O (stereo not drawn) [Example 210a, Cyclo[glycyl-β-methylphenylalanyl-O-[4-O-(2,3-O-cyclotridecylidenehexopyranosyl)hexopyranosyl]tyrosyl-3-(2-iminoimidazolidin-4-yl)seryl-3-(3-hexopyranosyl-2-iminoimidazolidin-4-yl)serylseryl]]
MIC Enterococcus avium (GC 4558) (Enterococcus sp.; Enterococcus avium (GC 4558)): 4 µg/mL (≈ 2.71 µM) | MIC Enterococcus faecalis (ATCC 29212) (Enterococcus sp.; Enterococcus faecalis (ATCC 29212)): 8 µg/mL (≈ 5.43 µM) | MIC Enterococcus faecalis (GC 2242) (Enterococcus sp.; Enterococcus faecalis (GC 2242)): 8 µg/mL (≈ 5.43 µM) | MIC Enterococcus faecalis (GC 2691) (Enterococcus sp.; Enterococcus faecalis (GC 2691)): 8 µg/mL (≈ 5.43 µM) | MIC Enterococcus faecalis (GC 3059) (Enterococcus sp.; Enterococcus faecalis (GC 3059)): 8 µg/mL (≈ 5.43 µM) | MIC Enterococcus faecalis (GC 4552) (Enterococcus sp.; Enterococcus faecalis (GC 4552)): 8 µg/mL (≈ 5.43 µM) | MIC Enterococcus faecalis (GC 4553) (Enterococcus sp.; Enterococcus faecalis (GC 4553)): 8 µg/mL (≈ 5.43 µM) | MIC Enterococcus faecalis (GC 4554) (Enterococcus sp.; Enterococcus faecalis (GC 4554)): 8 µg/mL (≈ 5.43 µM) | MIC Enterococcus faecalis (GC 6189) (Enterococcus sp.; Enterococcus faecalis (GC 6189)): 8 µg/mL (≈ 5.43 µM) | MIC Enterococcus faecium (GC 2243) (Enterococcus sp.; Enterococcus faecium (GC 2243)): 4 µg/mL (≈ 2.71 µM) | MIC Enterococcus faecium (GC 4556) (Enterococcus sp.; Enterococcus faecium (GC 4556)): 8 µg/mL (≈ 5.43 µM) | MIC Enterococcus faecium (GC 4557) (Enterococcus sp.; Enterococcus faecium (GC 4557)): 4 µg/mL (≈ 2.71 µM) | MIC Enterococcus avium (GC 4558) (Enterococcus sp.; [1]): 4 µg/mL (≈ 2.71 µM) | MIC Enterococcus faecalis (ATCC 29212) (Enterococcus sp.; [1]): 8 µg/mL (≈ 5.43 µM) | MIC Enterococcus faecalis (GC 2242) (Enterococcus sp.; [1]): 8 µg/mL (≈ 5.43 µM) | MIC Enterococcus faecalis (GC 2691) (Enterococcus sp.; [1]): 8 µg/mL (≈ 5.43 µM) | MIC Enterococcus faecalis (GC 3059) (Enterococcus sp.; [1]): 8 µg/mL (≈ 5.43 µM) | MIC Enterococcus faecalis (GC 4552) (Enterococcus sp.; [1]): 8 µg/mL (≈ 5.43 µM) | MIC Enterococcus faecalis (GC 4553) (Enterococcus sp.; [1]): 8 µg/mL (≈ 5.43 µM) | MIC Enterococcus faecalis (GC 4554) (Enterococcus sp.; [1]): 8 µg/mL (≈ 5.43 µM) | MIC Enterococcus faecalis (GC 6189) (Enterococcus sp.; [1]): 8 µg/mL (≈ 5.43 µM) | MIC Enterococcus faecium (GC 2243) (Enterococcus sp.; [1]): 4 µg/mL (≈ 2.71 µM) | MIC Enterococcus faecium (GC 4556) (Enterococcus sp.; [1]): 8 µg/mL (≈ 5.43 µM) | MIC Enterococcus faecium (GC 4557) (Enterococcus sp.; [1]): 4 µg/mL (≈ 2.71 µM) | MIC Escherichia coli (ATCC 25922) (Escherichia coli; Escherichia coli (ATCC 25922)): >64 µg/mL | MIC Escherichia coli (GC 4559) (Escherichia coli; Escherichia coli (GC 4559)): >64 µg/mL | MIC Escherichia coli (GC 4560) (Escherichia coli; Escherichia coli (GC 4560)): 16 µg/mL (≈ 10.9 µM) | MIC Staphylococcus aureus (ATCC 29213) (Staphylococcus sp.; strain ATCC 29213): 4 µg/mL (≈ 2.71 µM) | MIC Staphylococcus aureus (GC 1131) (Staphylococcus sp.; strain GC 1131): 4 µg/mL (≈ 2.71 µM) | MIC Staphylococcus aureus (GC 3051) (Staphylococcus sp.; strain GC 3051): 8 µg/mL (≈ 5.43 µM) | MIC Staphylococcus aureus (GC 3053) (Staphylococcus sp.; strain GC 3053): 4 µg/mL (≈ 2.71 µM) | MIC Staphylococcus aureus (GC 4541) (Staphylococcus sp.; strain GC 4541): 4 µg/mL (≈ 2.71 µM) | MIC Staphylococcus aureus (GC 4542) (Staphylococcus sp.; strain GC 4542): 8 µg/mL (≈ 5.43 µM) | MIC Staphylococcus aureus-SMITH (GC 4543) (Staphylococcus sp.; strain GC 4543): 4 µg/mL (≈ 2.71 µM) | MIC Staphylococcus aureus (GC 4544) (Staphylococcus sp.; strain GC 4544): 8 µg/mL (≈ 5.43 µM) | MIC Staphylococcus aureus (GC 4545) (Staphylococcus sp.; strain GC 4545): 4 µg/mL (≈ 2.71 µM) | MIC Staphylococcus haemolyticus (GC 4546) (Staphylococcus sp.; strain GC 4546): 8 µg/mL (≈ 5.43 µM) | MIC Coagulase Negative Staphylococcus (GC 4547) (Staphylococcus sp.; strain GC 4547): 4 µg/mL (≈ 2.71 µM) | MIC Coagulase Negative Staphylococcus (GC 4548) (Staphylococcus sp.; strain GC 4548): 4 µg/mL (≈ 2.71 µM) | MIC Coagulase Negative Staphylococcus (GC 4549) (Staphylococcus sp.; strain GC 4549): 2 µg/mL (≈ 1.36 µM) | MIC Coagulase Negative Staphylococcus (GC 4551) (Staphylococcus sp.; strain GC 4551): 4 µg/mL (≈ 2.71 µM) | MIC Coagulase Negative Staphylococcus (GC 6257) (Staphylococcus sp.; strain GC 6257): 4 µg/mL (≈ 2.71 µM) | MIC Streptococcus agalactiae (GC 4564) (Streptococcus sp.; Streptococcus agalactiae (GC 4564)): 2 µg/mL (≈ 1.36 µM) | MIC Streptococcus pneumoniae (ATCC 6301) (Streptococcus sp.; Streptococcus pneumoniae (ATCC 6301)): 0.5 µg/mL (≈ 0.339 µM) | MIC Streptococcus pneumoniae (GC 1894) (Streptococcus sp.; Streptococcus pneumoniae (GC 1894)): <0.06 µg/mL | MIC Streptococcus pneumoniae (GC 4565) (Streptococcus sp.; Streptococcus pneumoniae (GC 4565)): 0.25 µg/mL (≈ 0.17 µM) | MIC Streptococcus pyogenes (GC 4563) (Streptococcus sp.; Streptococcus pyogenes (GC 4563)): 1 µg/mL (≈ 0.679 µM) | MIC Streptococcus agalactiae (GC 4564) (Streptococcus sp.; [1]): 2 µg/mL (≈ 1.36 µM) | MIC Streptococcus pneumoniae (ATCC 6301) (Streptococcus sp.; [1]): 0.5 µg/mL (≈ 0.339 µM) | MIC Streptococcus pneumoniae (GC 1894) (Streptococcus sp.; [1]): <0.06 µg/mL | MIC Streptococcus pneumoniae (GC 4565) (Streptococcus sp.; [1]): 0.25 µg/mL (≈ 0.17 µM) | MIC Streptococcus pyogenes (GC 4563) (Streptococcus sp.; [1]): 1 µg/mL (≈ 0.679 µM)
